Laboratory results published in PubChem BioAssay (NCI).
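1) Cells in 96-well plates. 2) Compound, 48 h, 5 concentrations. 3) Linear interpolation between surrounding doses. 4) Unreached endpoint = highest concentration. The concentration for 50% growth inhibition is given as GI50. TGI: concentration producing complete growth inhibition.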

Columns and labels:
Test in all cases: NCI tumour cell line growth inhibition, 48 h; in the data active = GI50 below about 0.43 µM; inactive = the rest
786-0 renal = system: 786-0 renal
A549 NSCLC = system: A549 NSCLC
U251 CNS = system: U251 CNS
SK-MEL-2 melanoma = system: SK-MEL-2 melanoma
SF-268 CNS = system: SF-268 CNS
UACC-257 melanoma = system: UACC-257 melanoma
DMS 114 small cell lung = system: DMS 114 small cell lung
HOP-92 NSCLC = system: HOP-92 NSCLC
M14 melanoma = system: M14 melanoma
COLO 205 colon = system: COLO 205 colon
LOX IMVI melanoma = system: LOX IMVI melanoma
CCRF-CEM leukemia = system: CCRF-CEM leukemia
CAKI-1 renal = system: CAKI-1 renal
DLD-1 colon = system: DLD-1 colon
A498 renal = system: A498 renal
NCI-H226 lung = system: NCI-H226 lung
SW-620 colon = system: SW-620 colon
OVCAR-4 ovarian = system: OVCAR-4 ovarian
SNB-75 CNS = system: SNB-75 CNS
KM20L2 colon = system: KM20L2 colon
OVCAR-3 ovarian = system: OVCAR-3 ovarian
NCI-H460 lung = system: NCI-H460 lung
HOP-18 NSCLC = system: HOP-18 NSCLC
RXF 393 renal = system: RXF 393 renal
HCT-116 colon = system: HCT-116 colon
SNB-19 CNS = system: SNB-19 CNS
UACC-62 melanoma = system: UACC-62 melanoma
NCI-H522 lung = system: NCI-H522 lung
SF-539 CNS = system: SF-539 CNS
HL-60(TB) leukemia = system: HL-60(TB) leukemia
KM12 colon = system: KM12 colon
TK-10 renal = system: TK-10 renal
RPMI-8226 leukemia = system: RPMI-8226 leukemia
M19-MEL melanoma = system: M19-MEL melanoma
HCT-15 colon = system: HCT-15 colon
SF-295 CNS = system: SF-295 CNS
NCI-H23 lung = system: NCI-H23 lung
SN12C renal = system: SN12C renal
DMS 273 small cell lung = system: DMS 273 small cell lung
OVCAR-8 ovarian = system: OVCAR-8 ovarian
SR leukemia = system: SR leukemia
SK-OV-3 ovarian = system: SK-OV-3 ovarian
HT29 colon = system: HT29 colon
OVCAR-5 ovarian = system: OVCAR-5 ovarian
IGROV1 ovarian = system: IGROV1 ovarian
SK-MEL-5 melanoma = system: SK-MEL-5 melanoma
MOLT-4 leukemia = system: MOLT-4 leukemia
UO-31 renal = system: UO-31 renal
LXFL 529 NSCLC = system: LXFL 529 NSCLC
SNB-78 CNS = system: SNB-78 CNS
HCC-2998 colon = system: HCC-2998 colon
MALME-3M melanoma = system: MALME-3M melanoma
EKVX NSCLC = system: EKVX NSCLC
SK-MEL-28 melanoma = system: SK-MEL-28 melanoma
HOP-62 NSCLC = system: HOP-62 NSCLC
ACHN renal = system: ACHN renal
XF 498 CNS = system: XF 498 CNS
K-562 leukemia = system: K-562 leukemia

C/C(=N\NC(=O)c1cccnc1)c1cccc(/C(C)=N/NC(=O)c2cccnc2)n1.CC(=O)[O-].CC(=O)[O-].[Zn+2]
> 26.9 µM: TGI (HOP-18 NSCLC)
> 67 µM: TGI (NCI-H23 lung)
27.2 µM: TGI (NCI-H226 lung)
10.8 µM: TGI (SR leukemia)
> 43.4 µM: TGI (IGROV1 ovarian)
> 79.9 µM: TGI (MALME-3M melanoma)
> 57.4 µM: TGI (A549 NSCLC)
84.4 µM: TGI (SF-268 CNS)
> 47.2 µM: TGI (M14 melanoma)
31.4 µM: TGI (CAKI-1 renal)
6.47 µM: TGI (HOP-92 NSCLC)
> 30.2 µM: TGI (SF-295 CNS)
> 68 µM: TGI (ACHN renal)
> 39.4 µM: TGI (OVCAR-8 ovarian)
99.7 µM: TGI (UACC-257 melanoma)
36.8 µM: TGI (RXF 393 renal)
10.7 µM: TGI (UACC-62 melanoma)
> 100 µM: TGI (786-0 renal) | TGI (U251 CNS) | TGI (COLO 205 colon) | TGI (DLD-1 colon) | TGI (A498 renal) | TGI (SW-620 colon) | TGI (OVCAR-4 ovarian) | TGI (KM20L2 colon) | TGI (OVCAR-3 ovarian) | TGI (NCI-H460 lung) | TGI (HCT-116 colon) | TGI (SNB-19 CNS) | TGI (KM12 colon) | TGI (TK-10 renal) | TGI (RPMI-8226 leukemia) | TGI (M19-MEL melanoma) | TGI (HCT-15 colon) | TGI (SN12C renal) | TGI (SK-OV-3 ovarian) | TGI (HT29 colon) | TGI (OVCAR-5 ovarian) | TGI (UO-31 renal) | TGI (LXFL 529 NSCLC) | TGI (SNB-78 CNS) | TGI (HCC-2998 colon) | TGI (EKVX NSCLC) | TGI (SK-MEL-28 melanoma)
inactive: GI50 (DMS 114 small cell lung) 0.949 µM | GI50 (HOP-92 NSCLC) 1.55 µM | GI50 (COLO 205 colon) 0.904 µM | GI50 (CCRF-CEM leukemia) 0.783 µM | GI50 (A498 renal) > 100 µM | GI50 (SNB-75 CNS) 24.7 µM | GI50 (OVCAR-3 ovarian) 0.843 µM | GI50 (HOP-18 NSCLC) 2.55 µM | GI50 (HCT-116 colon) 1.68 µM | GI50 (HL-60(TB) leukemia) 0.492 µM | GI50 (DMS 273 small cell lung) 2.15 µM | GI50 (SR leukemia) 0.793 µM | GI50 (HT29 colon) 5.64 µM | GI50 (IGROV1 ovarian) 10.1 µM | GI50 (SK-MEL-5 melanoma) 12.9 µM | GI50 (LXFL 529 NSCLC) 0.836 µM | GI50 (SNB-78 CNS) 32 µM | GI50 (HCC-2998 colon) 0.995 µM | GI50 (MALME-3M melanoma) 19.3 µM | GI50 (SK-MEL-28 melanoma) 29.4 µM
> 28.6 µM: TGI (SK-MEL-5 melanoma)
6.55 µM: TGI (SF-539 CNS)
98.2 µM: TGI (SNB-75 CNS)
98.1 µM: TGI (DMS 273 small cell lung)
> 54.9 µM: TGI (SK-MEL-2 melanoma)
20.1 µM: TGI (DMS 114 small cell lung)
11.4 µM: TGI (MOLT-4 leukemia)
2.86 µM: TGI (HL-60(TB) leukemia)
65.6 µM: TGI (CCRF-CEM leukemia) | TGI (HOP-62 NSCLC)
> 21.7 µM: TGI (NCI-H522 lung)
> 32.5 µM: TGI (LOX IMVI melanoma)
active: GI50 (NCI-H522 lung) 0.134 µM

Cc1ccc(C(=O)N2c3ccccc3N(C)n3cccc3C2CC(=O)O)cc1 (stereo not given)
> 100 µM: TGI (786-0 renal) | TGI (A549 NSCLC) | TGI (SK-MEL-2 melanoma) | TGI (SF-268 CNS) | TGI (XF 498 CNS) | TGI (UACC-257 melanoma) | TGI (DMS 114 small cell lung) | TGI (HOP-92 NSCLC) | TGI (M14 melanoma) | TGI (COLO 205 colon) | TGI (LOX IMVI melanoma) | TGI (CCRF-CEM leukemia) | TGI (CAKI-1 renal) | TGI (DLD-1 colon) | TGI (A498 renal) | TGI (NCI-H226 lung) | TGI (SW-620 colon) | TGI (OVCAR-4 ovarian) | TGI (SNB-75 CNS) | TGI (KM20L2 colon) | TGI (OVCAR-3 ovarian) | TGI (NCI-H460 lung) | TGI (RXF 393 renal) | TGI (SNB-19 CNS) | TGI (UACC-62 melanoma) | TGI (NCI-H522 lung) | TGI (SF-539 CNS) | TGI (HL-60(TB) leukemia) | TGI (KM12 colon) | TGI (TK-10 renal) | TGI (RPMI-8226 leukemia) | TGI (M19-MEL melanoma) | TGI (HCT-15 colon) | TGI (SF-295 CNS) | TGI (NCI-H23 lung) | TGI (SN12C renal) | TGI (DMS 273 small cell lung) | TGI (OVCAR-8 ovarian) | TGI (HT29 colon) | TGI (OVCAR-5 ovarian) | TGI (IGROV1 ovarian) | TGI (SK-MEL-5 melanoma) | TGI (MOLT-4 leukemia) | TGI (K-562 leukemia) | TGI (UO-31 renal) | TGI (LXFL 529 NSCLC) | TGI (SNB-78 CNS) | TGI (HCC-2998 colon) | TGI (MALME-3M melanoma) | TGI (EKVX NSCLC) | TGI (SK-MEL-28 melanoma) | TGI (HOP-62 NSCLC) | TGI (ACHN renal)

O=C1OC(c2ccc(Cl)cc2)(c2ccc(Cl)cc2)c2c1ccc1ccccc21
> 100 µM: TGI (A549 NSCLC) | TGI (U251 CNS) | TGI (SK-MEL-2 melanoma) | TGI (SF-268 CNS) | TGI (XF 498 CNS) | TGI (UACC-257 melanoma) | TGI (COLO 205 colon) | TGI (LOX IMVI melanoma) | TGI (CCRF-CEM leukemia) | TGI (CAKI-1 renal) | TGI (DLD-1 colon) | TGI (A498 renal) | TGI (NCI-H226 lung) | TGI (SW-620 colon) | TGI (OVCAR-4 ovarian) | TGI (SNB-75 CNS) | TGI (KM20L2 colon) | TGI (OVCAR-3 ovarian) | TGI (NCI-H460 lung) | TGI (HOP-18 NSCLC) | TGI (RXF 393 renal) | TGI (SNB-19 CNS) | TGI (UACC-62 melanoma) | TGI (NCI-H522 lung) | TGI (HL-60(TB) leukemia) | TGI (KM12 colon) | TGI (TK-10 renal) | TGI (RPMI-8226 leukemia) | TGI (M19-MEL melanoma) | TGI (HCT-15 colon) | TGI (SF-295 CNS) | TGI (NCI-H23 lung) | TGI (SN12C renal) | TGI (DMS 273 small cell lung) | TGI (OVCAR-8 ovarian) | TGI (SK-OV-3 ovarian) | TGI (HT29 colon) | TGI (OVCAR-5 ovarian) | TGI (IGROV1 ovarian) | TGI (SK-MEL-5 melanoma) | TGI (MOLT-4 leukemia) | TGI (K-562 leukemia) | TGI (UO-31 renal) | TGI (LXFL 529 NSCLC) | TGI (SNB-78 CNS) | TGI (HCC-2998 colon) | TGI (MALME-3M melanoma) | TGI (EKVX NSCLC) | TGI (SK-MEL-28 melanoma) | TGI (ACHN renal)

CCOC(=O)c1cc2c(cn1)[nH]c1cccc(N)c12
> 100 µM: TGI (786-0 renal) | TGI (A549 NSCLC) | TGI (U251 CNS) | TGI (SF-268 CNS) | TGI (XF 498 CNS) | TGI (UACC-257 melanoma) | TGI (DMS 114 small cell lung) | TGI (HOP-92 NSCLC) | TGI (M14 melanoma) | TGI (COLO 205 colon) | TGI (LOX IMVI melanoma) | TGI (CCRF-CEM leukemia) | TGI (CAKI-1 renal) | TGI (DLD-1 colon) | TGI (SW-620 colon) | TGI (OVCAR-4 ovarian) | TGI (SNB-75 CNS) | TGI (OVCAR-3 ovarian) | TGI (NCI-H460 lung) | TGI (HOP-18 NSCLC) | TGI (RXF 393 renal) | TGI (HCT-116 colon) | TGI (SNB-19 CNS) | TGI (UACC-62 melanoma) | TGI (NCI-H522 lung) | TGI (SF-539 CNS) | TGI (KM12 colon) | TGI (TK-10 renal) | TGI (M19-MEL melanoma) | TGI (SF-295 CNS) | TGI (NCI-H23 lung) | TGI (SN12C renal) | TGI (DMS 273 small cell lung) | TGI (OVCAR-8 ovarian) | TGI (SR leukemia) | TGI (HT29 colon) | TGI (OVCAR-5 ovarian) | TGI (IGROV1 ovarian) | TGI (SK-MEL-5 melanoma) | TGI (MOLT-4 leukemia) | TGI (K-562 leukemia) | TGI (UO-31 renal) | TGI (LXFL 529 NSCLC) | TGI (SNB-78 CNS) | TGI (HCC-2998 colon) | TGI (MALME-3M melanoma) | TGI (SK-MEL-28 melanoma) | TGI (HOP-62 NSCLC) | TGI (ACHN renal)
28.6 µM: TGI (HL-60(TB) leukemia)
